Data from BindingDB's records for doi:10.1016/0960-894X(95)00325-N (1995).

experiment: Binding affinity by its ability to displace [3H]DPDPE from delta receptor in homogenates of guinea pig brain

Structure (SMILES) | Ki
COc1cccc2c1[C@]13CCN(CC4CC4)[C@H](C2)[C@]1(OC)CCC(=O)C3 [Naltrindole analogue] | 105 nM
COc1cccc2c1[C@]13CCN(C)[C@H](C2)[C@]1(OC)CCC(=O)C3 [3,10-dimethoxy-17-methyl-(10S)-17-azatetracyclo[7.5.3.01,10.02,7]heptadeca-2(7),3,5-trien-13-one] | 46 nM
COc1cccc2c1[C@]13CCN(CCc4ccccc4)C(C2)[C@]1(OC)CCC(=O)C3 [3,10-dimethoxy-17-phenethyl-17-azatetracyclo[7.5.3.01,10.02,7]heptadeca-2(7),3,5-trien-13-one; with HBr] | 49 nM
